Data taken from ChEMBL document CHEMBL3603734, “Design and biological evaluation of novel quinolone-based metronidazole derivatives as potent Cu(2+) mediated DNA-targeting antibacterial agents” (Bioorg Med Chem Lett, 2015).
≈ marks a conversion by molar mass, not a printed value. Calls of active or inactive are those of the source. No cut-off for these calls is given here.

What was measured:
Escherichia coli = assay: Antibacterial activity against Escherichia coli JM109 after 24 hrs by microbroth dilution method; assay type: functional; conditions: JM109, 24 h
Bacillus = assay: Antibacterial activity against Bacillus proteus ATCC 13315 after 24 hrs by microbroth dilution method; assay type: functional; conditions: ATCC 13315, 24 h
Pseudomonas aeruginosa [1] = assay: Antibacterial activity against Pseudomonas aeruginosa ATCC 27853 after 24 hrs by microbroth dilution method; assay type: functional; conditions: ATCC 27853, 24 h
Salmonella enterica = assay: Antibacterial activity against Salmonella enterica ATCC 14028 after 24 hrs by microbroth dilution method; assay type: functional; conditions: ATCC 14028, 24 h
Staphylococcus aureus [2] = assay: Antibacterial activity against methicillin-resistant Staphylococcus aureus N315 after 24 hrs by microbroth dilution method; assay type: functional; conditions: N315, 24 h
Staphylococcus aureus [3] = assay: Antibacterial activity against Staphylococcus aureus ATCC 25923 after 24 hrs by microbroth dilution method; assay type: functional; conditions: ATCC 25923, 24 h
Bacillus spizizenii = assay: Antibacterial activity against Bacillus subtilis ATCC 6633 after 24 hrs by microbroth dilution method; assay type: functional; conditions: ATCC 6633, 24 h
Micrococcus luteus = assay: Antibacterial activity against Micrococcus luteus ATCC 4698 after 24 hrs by microbroth dilution method; assay type: functional; conditions: NCTC 2665, 24 h
Cyberlindnera jadinii = assay: Antifungal activity against Candida utilis ATCC 9950 after 24 hrs by microbroth dilution method; assay type: functional; conditions: Williopsis jadinii, ATCC 9950, 24 h
Aspergillus flavus = assay: Antifungal activity against Aspergillus flavus ATCC 204304 after 24 hrs by microbroth dilution method; assay type: functional; conditions: ATCC 204304, 24 h
Saccharomyces cerevisiae = assay: Antifungal activity against Saccharomyces cerevisiae ATCC 9763 after 24 hrs by microbroth dilution method; assay type: functional; conditions: ATCC 9763, 24 h
Candida albicans = assay: Antifungal activity against Candida albicans ATCC 10231 after 24 hrs by microbroth dilution method; assay type: functional; conditions: ATCC 10231, 24 h
Pichia norvegensis = assay: Antifungal activity against Candida mycoderma ATCC 9888 after 24 hrs by microbroth dilution method; assay type: functional; conditions: ATCC 9888, 24 h
[4] = Cytotoxicity against HEK293 cells assessed as inhibition of cell proliferation at 10^-2 umol/L after 72 hrs by MTT assay relative to control; assay type: cell-based; conditions: human
[5] = Cytotoxicity against HEK293 cells assessed as inhibition of cell proliferation at 3 x 10^-2 umol/L after 72 hrs by MTT assay relative to control; assay type: cell-based; conditions: human
[6] = Cytotoxicity against HEK293 cells assessed as inhibition of cell proliferation at 10^-1 umol/L after 72 hrs by MTT assay relative to control; assay type: cell-based; conditions: human
[7] = Cytotoxicity against HEK293 cells assessed as inhibition of cell proliferation at 3 x 10^-1 umol/L after 72 hrs by MTT assay relative to control; assay type: cell-based; conditions: human
[8] = Cytotoxicity against HEK293 cells assessed as inhibition of cell proliferation at 1 umol/L after 72 hrs by MTT assay relative to control; assay type: cell-based; conditions: human
[9] = Cytotoxicity against HEK293 cells assessed as inhibition of cell proliferation at 3 umol/L after 72 hrs by MTT assay relative to control; assay type: cell-based; conditions: human
[10] = Cytotoxicity against HEK293 cells assessed as inhibition of cell proliferation at 10 umol/L after 72 hrs by MTT assay relative to control; assay type: cell-based; conditions: human
[11] = Cytotoxicity against HEK293 cells assessed as inhibition of cell proliferation at 30 umol/L after 72 hrs by MTT assay relative to control; assay type: cell-based; conditions: human
[12] = Cytotoxicity against HEK293 cells assessed as inhibition of cell proliferation at 10^2 umol/L after 72 hrs by MTT assay relative to control; assay type: cell-based; conditions: human
[13] = Cytotoxicity against HEK293 cells assessed as inhibition of cell proliferation at 3 x 10^2 umol/L after 72 hrs by MTT assay relative to control; assay type: cell-based; conditions: human
[14] = Cytotoxicity against MEF assessed as inhibition of cell proliferation at 10^-2 umol/L after 72 hrs by MTT assay relative to control; assay type: cell-based; conditions: mouse, MEF cells
[15] = Cytotoxicity against MEF assessed as inhibition of cell proliferation at 3 x 10^-2 umol/L after 72 hrs by MTT assay relative to control; assay type: cell-based; conditions: mouse, MEF cells
[16] = Cytotoxicity against MEF assessed as inhibition of cell proliferation at 10^-1 umol/L after 72 hrs by MTT assay relative to control; assay type: cell-based; conditions: mouse, MEF cells
[17] = Cytotoxicity against MEF assessed as inhibition of cell proliferation at 3 x 10^-1 umol/L after 72 hrs by MTT assay relative to control; assay type: cell-based; conditions: mouse, MEF cells
[18] = Cytotoxicity against MEF assessed as inhibition of cell proliferation at 1 umol/L after 72 hrs by MTT assay relative to control; assay type: cell-based; conditions: mouse, MEF cells
[19] = Cytotoxicity against MEF assessed as inhibition of cell proliferation at 3 umol/L after 72 hrs by MTT assay relative to control; assay type: cell-based; conditions: mouse, MEF cells
[20] = Cytotoxicity against MEF assessed as inhibition of cell proliferation at 10 umol/L after 72 hrs by MTT assay relative to control; assay type: cell-based; conditions: mouse, MEF cells
[21] = Cytotoxicity against MEF assessed as inhibition of cell proliferation at 30 umol/L after 72 hrs by MTT assay relative to control; assay type: cell-based; conditions: mouse, MEF cells
[22] = Cytotoxicity against MEF assessed as inhibition of cell proliferation at 10^2 umol/L after 72 hrs by MTT assay relative to control; assay type: cell-based; conditions: mouse, MEF cells
[23] = Cytotoxicity against MEF assessed as inhibition of cell proliferation at 3 x 10^2 umol/L after 72 hrs by MTT assay relative to control; assay type: cell-based; conditions: mouse, MEF cells
[24] = Cytotoxicity against mouse C2C12 cells assessed as inhibition of cell proliferation at 10^-2 umol/L after 72 hrs by MTT assay relative to control; assay type: cell-based
[25] = Cytotoxicity against mouse C2C12 cells assessed as inhibition of cell proliferation at 3 x 10^-2 umol/L after 72 hrs by MTT assay relative to control; assay type: cell-based
[26] = Cytotoxicity against mouse C2C12 cells assessed as inhibition of cell proliferation at 10^-1 umol/L after 72 hrs by MTT assay relative to control; assay type: cell-based
[27] = Cytotoxicity against mouse C2C12 cells assessed as inhibition of cell proliferation at 3 x 10^-1 umol/L after 72 hrs by MTT assay relative to control; assay type: cell-based
[28] = Cytotoxicity against mouse C2C12 cells assessed as inhibition of cell proliferation at 1 umol/L after 72 hrs by MTT assay relative to control; assay type: cell-based
[29] = Cytotoxicity against mouse C2C12 cells assessed as inhibition of cell proliferation at 3 umol/L after 72 hrs by MTT assay relative to control; assay type: cell-based
[30] = Cytotoxicity against mouse C2C12 cells assessed as inhibition of cell proliferation at 10 umol/L after 72 hrs by MTT assay relative to control; assay type: cell-based
[31] = Cytotoxicity against mouse C2C12 cells assessed as inhibition of cell proliferation at 30 umol/L after 72 hrs by MTT assay relative to control; assay type: cell-based
[32] = Cytotoxicity against mouse C2C12 cells assessed as inhibition of cell proliferation at 10^2 umol/L after 72 hrs by MTT assay relative to control; assay type: cell-based
[33] = Cytotoxicity against mouse C2C12 cells assessed as inhibition of cell proliferation at 3 x 10^2 umol/L after 72 hrs by MTT assay relative to control; assay type: cell-based
HEK293 = assay: Cytotoxicity against HEK293 cells assessed as inhibition of cell proliferation after 72 hrs by MTT assay; assay type: cell-based; conditions: Homo sapiens, HEK293, 72 h
MEF = assay: Cytotoxicity against MEF assessed as inhibition of cell proliferation after 72 hrs by MTT assay; assay type: cell-based; conditions: Mus musculus
C2C12 = assay: Cytotoxicity against mouse C2C12 cells assessed as inhibition of cell proliferation after 72 hrs by MTT assay; assay type: cell-based; conditions: C2C12, 72 h
[34] = Ionization constant, pKa of the compound by UV spectroscopic analysis; assay type: physicochemical
Pseudomonas aeruginosa [35] = assay: Binding affinity to Pseudomonas aeruginosa DNA up to 1.4 x 10^-5 mol/L by UV-vis absorption spectra analysis
Pseudomonas aeruginosa [36] = assay: Binding affinity to Pseudomonas aeruginosa DNA by fluorescence spectroscopic analysis
Pseudomonas aeruginosa [37] = assay: Binding affinity to Cu2+ assessed as 2:1 compound-metal complex formation at 6 x 10^-6 mol/L by fluorescence spectroscopic analysis
Pseudomonas aeruginosa [38] = assay: Binding affinity to Pseudomonas aeruginosa DNA assessed as 1:1 compound-DNA complex formation at 6 x 10^-6 mol/L by fluorescence spectroscopic analysis in presence of Cu2+
Pseudomonas aeruginosa [39] = assay: Binding affinity to Pseudomonas aeruginosa DNA assessed as Stem-Volmer quenching constant by fluorescence spectroscopic analysis in presence of KI

Cc1ncc([N+](=O)[O-])n1CC(O)CNC1CCN(c2c(F)cc3c(=O)c(C(=O)O)cn(C4CC4)c3c2Cl)C1 (configuration not stated)
MIC (Escherichia coli): 2 µg/mL (≈ 3.64 µM)
MIC (Bacillus): 0.25 µg/mL (≈ 0.455 µM)
MIC (Pseudomonas aeruginosa [1]): 0.25 µg/mL (≈ 0.455 µM)
MIC (Salmonella enterica): 0.5 µg/mL (≈ 0.911 µM)
MIC (Staphylococcus aureus [2]): 0.25 µg/mL (≈ 0.455 µM)
MIC (Staphylococcus aureus [3]): 0.5 µg/mL (≈ 0.911 µM)
MIC (Bacillus spizizenii): 0.25 µg/mL (≈ 0.455 µM)
MIC (Micrococcus luteus): 0.25 µg/mL (≈ 0.455 µM)
MIC (Cyberlindnera jadinii): 2 µg/mL (≈ 3.64 µM)
MIC (Aspergillus flavus): 4 µg/mL (≈ 7.29 µM)
MIC (Saccharomyces cerevisiae): 8 µg/mL (≈ 14.6 µM)
MIC (Candida albicans): 16 µg/mL (≈ 29.1 µM)
MIC (Pichia norvegensis): 8 µg/mL (≈ 14.6 µM)
inhibition at 72 h, 0.01 umol/L [4]: 0.1%
inhibition at 72 h, 0.03 umol/L [5]: 1.5%
inhibition at 72 h, 0.1 umol/L [6]: 0.9%
inhibition at 72 h, 0.3 umol/L [7]: 4.1%
inhibition at 72 h, 1 µM [8]: 5.3%
inhibition at 72 h, 3 µM [9]: 13%
inhibition at 72 h, 10 µM [10]: 21.8%
inhibition at 72 h, 30 µM [11]: 25.7%
inhibition at 72 h, 100 umol/L [12]: 35.8%
inhibition at 72 h, 300 umol/L [13]: 57.9%
inhibition at 72 h, 0.01 umol/L [14]: 0%
inhibition at 72 h, 0.03 umol/L [15]: 0%
inhibition at 72 h, 0.1 umol/L [16]: 0%
inhibition at 72 h, 0.3 umol/L [17]: 0%
inhibition at 72 h, 1 µM [18]: 0%
inhibition at 72 h, 3 µM [19]: 8.4%
inhibition at 72 h, 10 µM [20]: 22.7%
inhibition at 72 h, 30 µM [21]: 39.9%
inhibition at 72 h, 100 umol/L [22]: 51.7%
inhibition at 72 h, 300 umol/L [23]: 58.1%
inhibition at 72 h, 0.01 umol/L [24]: 0%
inhibition at 72 h, 0.03 umol/L [25]: 0%
inhibition at 72 h, 0.1 umol/L [26]: 0%
inhibition at 72 h, 0.3 umol/L [27]: 0.3%
inhibition at 72 h, 1 µM [28]: 0.7%
inhibition at 72 h, 3 µM [29]: 4%
inhibition at 72 h, 10 µM [30]: 10.3%
inhibition at 72 h, 30 µM [31]: 22.4%
inhibition at 72 h, 100 umol/L [32]: 58.2%
inhibition at 72 h, 300 umol/L [33]: 65.5%
IC50 (HEK293): 126 µg/mL (≈ 230 µM)
IC50 (MEF): 60 µg/mL (≈ 109 µM)
IC50 (C2C12): 57 µg/mL (≈ 104 µM)
pKa [34]: 6.48
Activity (Pseudomonas aeruginosa [35]): Active
Activity (Pseudomonas aeruginosa [36]): inactive
Activity (Pseudomonas aeruginosa [37]): Active
Activity (Pseudomonas aeruginosa [38]): Active
KSV (Pseudomonas aeruginosa [39]): 7.02 L/mol
